Results from patent publication US8574831B2, “Mutational profiles in HIV-1 reverse transcriptase correlated with phenotypic drug resistance” (Virco N.V., priority 2000, dated 2013).

Tested on: HIV with mutations in the HIV protease sequence
Test: Phenotypic fold resistance to protease inhibitors, protease mutations 84A/84L/84C/54M/54L/54V in a background (Examples 8-13)
Assay type: cell-based, HIV-1
Procedure: As is the case with the genotyping assays, the recombinant virus assay starts with the amplification of viral target sequences by means of PCR. The amplicons are incorporated into a proviral laboratory clone with sequences homologous to those present in the amplicon deleted. This generates a stock of chimeric viruses. The viruses are tested for their ability to grow in the presence of different concentrations of drugs. Results are obtained by calculating IC50 values for each inhibitor and by reporting the results as IC50 values, expressed in μM concentrations, or by computing the ratio of the IC50 values found for the chimeric virus to the IC50 values found for a wild type susceptible laboratory virus tested in parallel. In the latter case, resistance is expressed as “fold-resistance” compared to a wild-type susceptible HIV-1 strain. In order to meet the need for high-volume testing and a short turn-around time for an individual test, the latest generation of phenotyping assays has undergone further modifications. The use of reporter gene systems for susceptibility testing allows the implementation of laboratory automation and standardization. See Pauwels, et al., J. Virol. Methods 20, 309-321 (1998); Paulous, S., et al., International Workshop on HIV Drug Resistance, Treatment Strategies and Eradication, St. Petersburg, Fla., USA. Abstr. 46 (1997); and Deeks, S. G., et al., 2nd International Workshop on HIV Drug Resistance and Treatment Strategies, Lake Maggiore, Italy. Abstr. 53 (1998).
The ANTIVIROGRAM® assay (Virco) (WO 97/27480) is based on homologous recombination of patient derived HIV-1 gag/PR/RT sequences into a proviral HIV-1 clone correspondingly deleted for the gag/PR/RT sequences. See Pauwels, et al., J. Virol. Methods 20, 309-321 (1998). A similar assay (Phenosense ViroLogic) is based on enzymatic ligation of patient-derived PR/RT sequences into a correspondingly deleted proviral vector carrying an indicator gene, luciferase, inserted in the deleted HIV-1 envelope gene. See Deeks, S. G., et al., 2nd International Workshop on HIV Drug Resistance and Treatment Strategies, Lake Maggiore, Italy. Abstr. 53 (1998). Hertogs et al. Antimicrob. Agents Chemother. 44(3) 568-573 (2000) the disclosures of which are herein incorporated by reference.
The methods of monitoring HIV-1 drug resistance, may also be used in combination with phenotypic drug resistance testing of viral isolates. For example, in one embodiment, a phenotypic test is utilized that is based upon the construction of chimeric HIV-1 strains composed of the protease (PR) and reverse transcriptase (RT) gene sequences which are isolated and amplified from the patient viral RNA. These strains may subsequently be recombined inside CD4+ T cells with a standard laboratory isogenic (HXB2) HIV-1 DNA construct from which the PR/RT gene sequences were deleted. The recombinant strains may then be grown in the presence of the above-mentioned antiviral drugs and the susceptibility of the viral isolates may be expressed as fold-change value of the IC50 of the drug on the patient isolates over the IC50 of the drug on a wild-type laboratory reference strain.

Cc1c(O)cccc1C(=O)N[C@@H](CSc1ccccc1)[C@H](O)CN1C[C@H]2CCCC[C@H]2C[C@H]1C(=O)NC(C)(C)C [Nelfinavir, nelfinavir]
Fold change in IC50 (Table 12, V055199, genotype 10I + 33F + 54M + 90M): 11.7 fold | Fold change in IC50 (Table 13, V19263, genotype 77I): 0.9 fold | Fold change in IC50 (Table 13, V20160, genotype WT): 0.7 fold | Fold change in IC50 (Table 13, V021667, genotype 10I): 1.0 fold | Fold change in IC50 (Table 13, V030496, genotype 10I + 77I): 0.7 fold | Fold change in IC50 (Table 13, V048868, genotype 10I + 54L + 71V + 77I + 90M): 15.6 fold | Fold change in IC50 (Table 13, V048874, genotype 10I + 33F + 54L + 71V + 77I + 90M): 14.5 fold | Fold change in IC50 (Table 13, V048875, genotype 10I + 33F + 54L + 71V + 77I + 90M): 12.5 fold | Fold change in IC50 (Table 13, V048877, genotype 10I + 33F + 77I + 90M): 9.4 fold | Fold change in IC50 (Table 13, V048880, genotype 10I + 33F + 77I + 90M): 4.9 fold | Fold change in IC50 (Table 13, V052940, genotype 71V): 0.6 fold | Fold change in IC50 (Table 13, V052942, genotype 10I + 71V): 0.9 fold | Fold change in IC50 (Table 13, V052943, genotype 10I + 90M): 2.2 fold | Fold change in IC50 (Table 13, V052944, genotype 10I + 90M): 1.4 fold | Fold change in IC50 (Table 13, V052945, genotype 77I + 90M): 3.0 fold | Fold change in IC50 (Table 13, V052946, genotype 71V + 90M): 3.0 fold | Fold change in IC50 (Table 13, V052947, genotype 10I + 77I + 90M): 8.2 fold | Fold change in IC50 (Table 13, V052948, genotype 10I + 71V + 90M): 9.0 fold | Fold change in IC50 (Table 13, V052949, genotype 10I + 71V + 77I + 90M): 8.6 fold | Fold change in IC50 (Table 13, V052950, genotype 33F): 1.0 fold | Fold change in IC50 (Table 13, V052951, genotype 33F + 77I): 5.2 fold | Fold change in IC50 (Table 13, V052953, genotype 10I + 33F + 77I): 0.9 fold | Fold change in IC50 (Table 13, V052954, genotype 33F + 77I + 90M): 5.9 fold | Fold change in IC50 (Table 13, V052955, genotype 33F + 71V + 90M): 36.6 fold | Fold change in IC50 (Table 13, V052968, genotype 10L/I + 33F/L + 54L + 77I): 3.5 fold | Fold change in IC50 (Table 13, V052969, genotype 10I + 33F + 54L + 90M): 3.4 fold | Fold change in IC50 (Table 13, V052970, genotype 54L): 1.6 fold | Fold change in IC50 (Table 13, V052971, genotype 10I + 54L): 1.0 fold | Fold change in IC50 (Table 13, V052972, genotype 54L + 77I): 3.0 fold | Fold change in IC50 (Table 13, V052973, genotype 10I + 54L + 77I): 2.8 fold | Fold change in IC50 (Table 13, V052974, genotype 10I + 54L + 90M): 2.6 fold | Fold change in IC50 (Table 13, V052975, genotype 10I + 54L + 71V + 90M): 41.3 fold | Fold change in IC50 (Table 13, V052976, genotype 10I + 54L + 71V + 77I + 90M): 8.9 fold | Fold change in IC50 (Table 13, V053832, genotype 10I + 33F): 1.6 fold | Fold change in IC50 (Table 13, V053854, genotype 54L + 71V): 5.9 fold | Fold change in IC50 (Virco ID 214846, genotype 10I + 33F + 54V + 71V + 77I + 90M, vs mean IC50 of wild type laboratory HIV strain): 43.5 fold | Fold change in IC50 (Virco ID V021667, genotype 10I, vs mean IC50 of wild type laboratory HIV strain): 1.0 fold | Fold change in IC50 (Virco ID V030496, genotype 10I + 77I, vs mean IC50 of wild type laboratory HIV strain): 0.7 fold | Fold change in IC50 (Virco ID V048876, genotype 33F + 54V + 77I + 90M, vs mean IC50 of wild type laboratory HIV strain): 1.6 fold | Fold change in IC50 (Virco ID V048877, genotype 10I + 33F + 77I + 90M, vs mean IC50 of wild type laboratory HIV strain): 9.4 fold | Fold change in IC50 (Virco ID V048880, genotype 10I + 33F + 77I + 90M, vs mean IC50 of wild type laboratory HIV strain): 4.9 fold | Fold change in IC50 (Virco ID V052940, genotype 71V, vs mean IC50 of wild type laboratory HIV strain): 0.6 fold | Fold change in IC50 (Virco ID V052942, genotype 10I + 71V, vs mean IC50 of wild type laboratory HIV strain): 0.9 fold | Fold change in IC50 (Virco ID V052943, genotype 10I + 90M, vs mean IC50 of wild type laboratory HIV strain): 2.2 fold | Fold change in IC50 (Virco ID V052944, genotype 10I + 90M, vs mean IC50 of wild type laboratory HIV strain): 1.4 fold | Fold change in IC50 (Virco ID V052946, genotype 71V + 90M, vs mean IC50 of wild type laboratory HIV strain): 3.0 fold | Fold change in IC50 (Virco ID V052947, genotype 10I + 77I + 90M, vs mean IC50 of wild type laboratory HIV strain): 8.2 fold | Fold change in IC50 (Virco ID V052948, genotype 10I + 71V + 90M, vs mean IC50 of wild type laboratory HIV strain): 9.0 fold | Fold change in IC50 (Virco ID V052949, genotype 10I + 71V + 77I + 90M, vs mean IC50 of wild type laboratory HIV strain): 8.6 fold | Fold change in IC50 (Virco ID V052950, genotype 33F, vs mean IC50 of wild type laboratory HIV strain): 1.0 fold | Fold change in IC50 (Virco ID V052951, genotype 33F + 77I, vs mean IC50 of wild type laboratory HIV strain): 5.2 fold | Fold change in IC50 (Virco ID V052953, genotype 10I + 33F + 77I, vs mean IC50 of wild type laboratory HIV strain): 0.9 fold | Fold change in IC50 (Virco ID V052954, genotype 33F + 77I + 90M, vs mean IC50 of wild type laboratory HIV strain): 5.9 fold | Fold change in IC50 (Virco ID V052955, genotype 33F + 71V + 90M, vs mean IC50 of wild type laboratory HIV strain): 36.6 fold | Fold change in IC50 (Virco ID V052957, genotype 10I + 33F + 54V + 90M, vs mean IC50 of wild type laboratory HIV strain): 6.9 fold | Fold change in IC50 (Virco ID V052958, genotype 10I + 33F + 54V + 77I + 90M, vs mean IC50 of wild type laboratory HIV strain): 4.8 fold | Fold change in IC50 (Virco ID V052959, genotype 10I + 33F + 54V + 77I + 90M, vs mean IC50 of wild type laboratory HIV strain): 7.5 fold | Fold change in IC50 (Virco ID V052960, genotype 10I + 33F + 54V + 71V + 90M, vs mean IC50 of wild type laboratory HIV strain): 40.7 fold | Fold change in IC50 (Virco ID V052961, genotype 54V, vs mean IC50 of wild type laboratory HIV strain): 1.0 fold | Fold change in IC50 (Virco ID V052962, genotype 10I + 54V, vs mean IC50 of wild type laboratory HIV strain): 0.6 fold | Fold change in IC50 (Virco ID V052963, genotype 54V + 77I + 90M, vs mean IC50 of wild type laboratory HIV strain): 3.2 fold | Fold change in IC50 (Virco ID V052964, genotype 54V + 71V + 90M, vs mean IC50 of wild type laboratory HIV strain): 3.3 fold | Fold change in IC50 (Virco ID V052965, genotype 10I + 54V + 77I + 90M, vs mean IC50 of wild type laboratory HIV strain): 15.1 fold | Fold change in IC50 (Virco ID V052966, genotype 10I + 54V + 71V + 90M, vs mean IC50 of wild type laboratory HIV strain): 55.4 fold | Fold change in IC50 (Virco ID V052967, genotype 10I + 54V + 71V + 77I + 90M, vs mean IC50 of wild type laboratory HIV strain): 0.8 fold | Fold change in IC50 (Virco ID V053358, genotype 33F + 54V + 77I + 90M, vs mean IC50 of wild type laboratory HIV strain): 2.1 fold | Fold change in IC50 (Virco ID V053831, genotype 33F + 54V, vs mean IC50 of wild type laboratory HIV strain): 5.9 fold | Fold change in IC50 (Virco ID V053832, genotype 10I + 33F, vs mean IC50 of wild type laboratory HIV strain): 1.6 fold
